TGI data for 16 molecules are collected here from PubChem BioAssay (NCI).

Some test systems named below: OVCAR-8 ovarian; TK-10 renal; OVCAR-4 ovarian; LOX IMVI melanoma; SR leukemia; SF-539 CNS; HCT-15 colon; KM12 colon; T-47D breast.
Common to all, as to experiment: NCI-60 cell line screen, 48 h

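Method: 48-hour compound exposure of cells in 96-well plates, five concentrations, linear interpolation of endpoints. The concentration for full growth arrest is given as TGI.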 *1 amine or outer side, *2 acyl side, *3 side chain or, on linkers, in order; H or OH if unused. Where a SMILES comes first, the peptide text is derived from it. Bridges are numbered along the chain shown (N, C = ends). [ ]: non-standard residue; d: D form. ξ: configuration not given here. X35 = CC[C@H](C)[C@@H](N[*:1])[C@@H](O)CC(=O)O[C@H](C(=O)[C@H](C)C(=O)[*:2])C(C)C; NMeY = CN[C@@H](Cc1ccc(O)cc1)C(=O)O; dNMeL = CN[C@H](CC(C)C)C(=O)O; ξΔPro = O=C(O)C1C=CCN1

Regarding `O=c1nc2ccc3sc4ccccc4c(=O)c3n2c(=O)[nH]1`, the TGI in the assay on OVCAR-8 ovarian, in the assay with TK-10 renal, in the assay with OVCAR-4 ovarian, in the assay on LOX IMVI melanoma, in the assay with SR leukemia and in the assay with SF-539 CNS was above 100 µM each time. Also, the TGI in the assay on HCT-15 colon and in the assay with KM12 colon was above 100 µM in each case.

In the case of `CCOC(=O)Cc1csc(N=Nc2c(O)[nH]c3ccccc23)n1`, the TGI in the assay on T-47D breast, in the assay with OVCAR-8 ovarian, in the assay on TK-10 renal, with OVCAR-4 ovarian, in the assay on LOX IMVI melanoma and in the assay on SF-539 CNS was above 100 µM throughout. Moreover, the TGI with HCT-15 colon and in the assay on KM12 colon was above 100 µM in each case.

As for `O=c1c2cc(Br)ccc2ncn1COCc1ccccc1`, the TGI was above 1 µM in the assay on OVCAR-8 ovarian; above 100 µM in the assay with TK-10 renal; above 100 µM with OVCAR-4 ovarian; above 100 µM in the assay on LOX IMVI melanoma; above 100 µM in the assay on SR leukemia; above 100 µM with SF-539 CNS. Further, the TGI in the assay on HCT-15 colon and in the assay on KM12 colon was above 100 µM throughout.

With `CC(=Nc1cc(Cl)cc(Cl)c1)c1ccncc1`, the TGI in the assay on T-47D breast, in the assay with OVCAR-8 ovarian, with TK-10 renal, in the assay with OVCAR-4 ovarian, in the assay with LOX IMVI melanoma and in the assay on SF-539 CNS was above 100 µM each time. Also, the TGI in the assay with HCT-15 colon and in the assay on KM12 colon was above 100 µM each time.

Regarding `CC[C@H](C)[C@H]1NC(=O)[C@@H](NC(=O)[C@@H](CC(C)C)N(C)C(=O)C2C=CCN2)[C@@H](C)OC(=O)[C@H](Cc2ccc(OC)cc2)N(C)C(=O)[C@@H]2CCCN2C(=O)[C@H](CC(C)C)NC(=O)[C@@H](C)C(=O)[C@H](C(C)C)OC(=O)C[C@@H]1O` (stereo partly drawn) (H-[ξΔPro][dNMeL]T[X35]LP[NMeY](Me); ester 3-C), the TGI in the assay with T-47D breast is 0.136 µM; with OVCAR-8 ovarian it was 0.0118 µM; in the assay on TK-10 renal, 0.0516 µM; in the assay on OVCAR-4 ovarian, below 0.005 µM; in the assay on LOX IMVI melanoma, 0.0161 µM; in the assay on SR leukemia, 2.54 µM. Further, the values for the TGI with HCT-15 colon and in the assay with KM12 colon were 1.78 µM and 0.447 µM, respectively.

On to `CC(C)(CN1CCCCC1)C(/C=C/c1ccccc1)=N\NC(=O)N/N=C(/C=C/c1ccccc1)C(C)(C)CN1CCCCC1`, for which the TGI was 3.38 µM in the assay with OVCAR-8 ovarian; 3.36 µM with TK-10 renal; 14.1 µM in the assay with OVCAR-4 ovarian; 3.32 µM with LOX IMVI melanoma; 2.08 µM in the assay on SR leukemia; 2.72 µM with HCT-15 colon. The same molecule yielded a TGI in the assay with KM12 colon of 3.86 µM.

As for `C=C(CCOC)CCC1CCCCC(=C)[C@H]1O` (stereo partly drawn), the TGI in the assay on T-47D breast, in the assay with OVCAR-8 ovarian, in the assay with TK-10 renal, with OVCAR-4 ovarian, in the assay on SR leukemia and in the assay with HCT-15 colon was above 100 µM in each case. Also, the TGI in the assay on KM12 colon was above 100 µM.

Take `N#Cc1c(N2CCN(c3ccc([N+](=O)[O-])cc3)CC2)[n+](=O)c2ccc(-c3ccc([N+](=O)[O-])cc3)cc2n1[O-]`: the TGI in the assay with T-47D breast, with OVCAR-8 ovarian, in the assay on TK-10 renal, in the assay with OVCAR-4 ovarian, with LOX IMVI melanoma and in the assay on SF-539 CNS was above 100 µM in each case. Further, the TGI with HCT-15 colon and in the assay on KM12 colon was above 100 µM each time.

For the molecule `COc1cc2oc(=O)cc(C)c2c(OC)c1OC(C)=O`, the TGI in the assay with OVCAR-8 ovarian, with TK-10 renal, in the assay on OVCAR-4 ovarian, in the assay with LOX IMVI melanoma, with SR leukemia and in the assay with HCT-15 colon was above 100 µM in each case. Also, in the assay with KM12 colon, the TGI is above 100 µM.

As for `COC(=O)[C@@]1(C)CCC[C@]2(C(=O)O)C3Cc4occc4[C@H](C)[C@@H]3CCC21` (stereo partly drawn), the TGI in the assay on T-47D breast, in the assay with OVCAR-8 ovarian, in the assay on TK-10 renal, in the assay with SR leukemia, in the assay with SF-539 CNS and in the assay on KM12 colon was above 100 µM throughout.

For the molecule `C/C(=N/NC(=S)N1CCN(C(=S)N/N=C(/C)c2ccccn2)CC1)c1ccccn1`, the TGI with T-47D breast is 42.5 µM; in the assay with OVCAR-8 ovarian it was above 100 µM; with TK-10 renal it was above 100 µM; with OVCAR-4 ovarian it was above 100 µM; in the assay with LOX IMVI melanoma, above 100 µM; with SF-539 CNS, above 100 µM. Further, the TGI with HCT-15 colon and in the assay with KM12 colon was above 100 µM each time.

For `CC(=O)NC(=O)NC1=NCCC(=O)N1CCc1c[nH]c2ccccc12`, the TGI in the assay on T-47D breast, in the assay with OVCAR-8 ovarian, in the assay with TK-10 renal, in the assay with OVCAR-4 ovarian, with LOX IMVI melanoma and in the assay on SF-539 CNS was above 100 µM in each case. Moreover, the TGI in the assay with HCT-15 colon and with KM12 colon was above 100 µM each time.

Consider `CC(C)(C)C(=O)N1CCN(C=O)C1=S`, for which the TGI with T-47D breast, with OVCAR-8 ovarian, in the assay with TK-10 renal, in the assay with OVCAR-4 ovarian, in the assay on LOX IMVI melanoma and with SF-539 CNS was above 100 µM each time. The TGI in the assay on HCT-15 colon and with KM12 colon was above 100 µM throughout.

Turning to `CCn1c(=O)c2c3ccc(OC(C)=O)cc3[nH]c2c2ccc(OC(C)=O)cc21`, the TGI in the assay on T-47D breast is 93.9 µM; in the assay with OVCAR-8 ovarian it was above 100 µM; in the assay on TK-10 renal it was above 100 µM; in the assay on OVCAR-4 ovarian, above 100 µM; in the assay on SR leukemia it was above 100 µM; in the assay with SF-539 CNS, above 100 µM. Besides, the TGI in the assay with HCT-15 colon and in the assay with KM12 colon was above 100 µM in each case.

Regarding `Cc1nc(Nc2nc3ccccc3[nH]2)nc(Cl)c1CCCl`, the TGI in the assay on T-47D breast, with OVCAR-8 ovarian, with TK-10 renal, in the assay on OVCAR-4 ovarian, in the assay with SR leukemia and in the assay with SF-539 CNS was above 100 µM each time. Also, the TGI in the assay with HCT-15 colon and in the assay with KM12 colon was above 100 µM throughout.

For the molecule `COc1ccccc1NC(=S)N/N=C/c1ccccn1`, the TGI with T-47D breast was 1.95 µM; with OVCAR-8 ovarian it was 12.9 µM; with TK-10 renal, above 46.4 µM; in the assay with OVCAR-4 ovarian it was above 100 µM; in the assay on LOX IMVI melanoma, 6.8 µM; in the assay on SF-539 CNS, 5.07 µM. Moreover, the TGI was 29 µM in the assay on HCT-15 colon and above 31.6 µM in the assay on KM12 colon.
